The values below come from patent US7745459B2, “Quinolizinone compound and use thereof as HIV integrase inhibitor” (Japan Tobacco Inc., priority 2004, dated 2010).

Each structure is given as a SMILES string. pIC50: −log10 of the molar value.

In the test the target is T1, HIV integrase (Human immunodeficiency virus type 1 group M subtype B, UniProt P12497, F1332H).
T1 construct: HIV integrase full length gene; made in house; host or cells: Escherichia coli BL21 (DE3)
The experiment in a line: Determination of enzyme (HIV integrase) inhibitory activity. The format is biochemical. Particulars: recombinant integrase protein (phenylalanine at codon 185 substituted by histidine); donor/target DNA, absorbance at 450 nm; read-out: Anti-integrase activity (IC50 value). An excerpt:
The following explains evaluation methods of the HIV integrase inhibitory activity of the compound of the present invention.
HIV integrase full length gene (J. Virol., 67, 425-437 (1993)) in which phenylalanine at codon 185 was substituted by histidine, was inserted between the restriction enzyme NdeI and XhoI sites of plasmid pET21a(+) (Novagen), whereby an integrase expression vector pET21a-INH was constructed.
Escherichia coli recombinant BL21 (DE3) transformed with plasmid pET21a-INH obtained in (i) was shake cultured at 37° C. in a liquid medium containing ampicillin. When the culture reached the logarithmic growth phase, isopropyl-β-D-thiogalactopyranoside was added to promote expression of integrase gene. The culture was continued for 3 hr to promote accumulation of the integrase protein. The recombinant E. coli was collected in pellets by centrifugal separation and preserved at −80° C.
The E. coli was suspended in Lysis buffer (20 mM HEPES (pH 7.5), 5 mM DTT, 10 mM CHAPS, 10% glycerol) containing 1 M sodium chloride and subjected to repeat pressurization and depressurization for rupture, and centrifugal separation at 4° C., 40,000×g, 60 min to recover a water-soluble fraction (supernatant). This was diluted 10-fold with Lysis buffer free of sodium chloride, mixed with SP-Sepharose (Pharmacia Corporation) and stirred at 4° C. for 60 min to allow adsorption of integrase protein to the resin. The resin was washed with Lysis buffer containing 100 mM sodium chloride and the integrase protein was eluted with Lysis buffer containing 1 M sodium chloride.
The eluted integrase protein solution was subjected to a Superdex 75 (Pharmacia Corporation) column for gel filtration. The protein was eluted with Lysis buffer containing 1 M sodium chloride.
The obtained fractions of the integrase protein were collected and preserved at −80° C.
The following DNA synthesized by Greiner was dissolved in TE buffer (10 mM Tris-hydrochloric acid (pH 8.0), 1 mM EDTA) and mixed with donor DNA, target DNA, and each complementary strand (+ and − strands) to 1 μM. The mixture was heated at 95° C. for 5 min, 80° C. for 10 min, 70° C. for 10 min, 60° C. for 10 min, 50° C. for 10 min and 40° C. for 10 min and kept at 25° C. to give a double stranded DNA, which was used for the test.
The donor DNA was diluted with TE buffer to 10 nM, of which 50 μl was added to each well of streptavidin-coated microtiter plate (Roche) and allowed to adsorb at 37° C. for 60 min. The plate was washed with phosphate buffer (Dulbecco's PBS, Sanko Junyaku Co., Ltd.) containing 0.1% Tween 20 and phosphate buffer. Then, a reaction mixture (70 μl) having the following composition, a test substance (10 μl) diluted with the reaction mixture and 100 μg/ml integrase protein (10 μl) were added to each well and reacted at 37° C. for 60 min. Composition of the reaction mixture: 30 mM MOPS (3-morpholinopropanesulfonic acid), 5 mM magnesium chloride, 3 mM DTT (dithiothreitol), 0.1 mg/ml BSA (bovine serum albumin), 5% glycerol, 10% DMSO (dimethyl sulfoxide), 0.01% Tween 20.
Then, 50 nM target DNA (10 μl) was added, and the mixture was reacted at 37° C. for 10 min and washed with phosphate buffer containing 0.1% Tween 20 to stop the reaction.
Then, 100 mU/ml peroxidase labeled anti-digoxigenin antibody solution (Roche, 100 μl) was added, and the mixture was reacted at 37° C. for 60 min, followed by washing with phosphate buffer containing 0.1% Tween 20.
A peroxidase color solution (Bio Rad, 100 μl) was added and allowed to react at room temperature for 4 min. The color reaction was stopped by adding 1N sulfuric acid (100 μl). The absorbance at 450 nm was measured. […]
In the case of `CS(=O)(=O)NCc1cc(C(=O)O)c(=O)n2cc(Cc3cccc(Cl)c3F)ccc12` [Example 23, 7-(3-chloro-2-fluorobenzyl)-1-(methylsulfonylaminomethyl)-4-oxo-4H-quinolizine-3-carboxylic acid], the pIC50 was 5.00 to 6.00.

In the case of `CCOC(=O)c1cc(NC(=O)OC(C)(C)C)c2ccc(Cc3cccc(Cl)c3F)cn2c1=O` [Example 60, ethyl 1-(tert-butoxycarbonylamino)-7-(3-chloro-2-fluorobenzyl)-4-oxo-4H-quinolizine-3-carboxylate], the pIC50 is 6.00 to 7.00.

As for `CNCc1cc(C(=O)O)c(=O)n2cc(Cc3cccc(Cl)c3F)ccc12` [Example 21, 7-(3-chloro-2-fluorobenzyl)-1-methylaminomethyl-4-oxo-4H-quinolizine-3-carboxylic acid], the negative logarithm of the IC50 (pIC50) was 6.00 to 7.00.

Turning to `CCc1cc(C(=O)O)c(=O)n2cc(Cc3cccc(Cl)c3F)ccc12` [Example 4, 7-(3-chloro-2-fluorobenzyl)-1-ethyl-4-oxo-4H-quinolizine-3-carboxylic acid], the pIC50 is 7.00 to 8.00.

Turning to `O=C(O)Cc1cc(C(=O)O)c(=O)n2cc(Cc3cccc(Cl)c3F)ccc12` [Example 36, 1-carboxymethyl-7-(3-chloro-2-fluorobenzyl)-4-oxo-4H-quinolizine-3-carboxylic acid], the negative logarithm of the IC50 (pIC50) is 7.00 to 8.00.

On to `O=C(O)c1cc(CNC(=O)N2CCOCC2)c2ccc(Cc3cccc(Cl)c3F)cn2c1=O` [Example 47, 7-(3-chloro-2-fluorobenzyl)-1-([(morpholinocarbonyl)amino]methyl)-4-oxo-4H-quinolizine-3-carboxylic acid], for which the pIC50 was 7.00 to 8.00.

`NC(=O)Cc1cc(C(=O)O)c(=O)n2cc(Cc3cccc(Cl)c3F)ccc12` [Example 26, 1-carbamoylmethyl-7-(3-chloro-2-fluorobenzyl)-4-oxo-4H-quinolizine-3-carboxylic acid]: the pIC50 was 7.00 to 8.00.

For `NCc1cc(C(=O)O)c(=O)n2cc(Cc3cccc(Cl)c3F)ccc12` [Example 20, 1-aminomethyl-7-(3-chloro-2-fluorobenzyl)-4-oxo-4H-quinolizine-3-carboxylic acid hydrochloric acid], the negative-log IC50 (pIC50) is 6.00 to 7.00.

`O=C(Cc1ccccc1)NCc1cc(C(=O)O)c(=O)n2cc(Cc3cccc(Cl)c3F)ccc12` [Example 49, 7-(3-chloro-2-fluorobenzyl)-4-oxo-1-(phenylacetylaminomethyl)-4H-quinolizine-3-carboxylic acid]: the pIC50 is 7.00 to 8.00.

On to `CCCC(=O)NCc1cc(C(=O)O)c(=O)n2cc(Cc3cccc(Cl)c3F)ccc12` [Example 43, 1-(butyrylaminomethyl)-7-(3-chloro-2-fluorobenzyl)-4-oxo-4H-quinolizine-3-carboxylic acid], for which the pIC50 is 7.00 to 8.00.

In the case of `CC(C)(C)[C@@H](CO)c1cc(C(=O)O)c(=O)n2cc(Cc3cccc(Cl)c3Cl)ccc12` [Example 64, 7-(2,3-dichlorobenzyl)-1-((R)-1-hydroxymethyl-2,2-dimethylpropyl)-4-oxo-4H-quinolizine-3-carboxylic acid], the pIC50 was > 8.00.

For the molecule `O=C(O)C(=O)NCc1cc(C(=O)O)c(=O)n2cc(Cc3cccc(Cl)c3F)ccc12` [Example 50, 7-(3-chloro-2-fluorobenzyl)-1-[(oxalylamino)methyl]-4-oxo-4H-quinolizine-3-carboxylic acid], the pIC50 was 7.00 to 8.00.

Regarding `CC(C)[C@@H](CO)c1cc(C(=O)O)c(=O)n2cc(Cc3cccc(Cl)c3Cl)ccc12` [Example 63, 7-(2,3-dichlorobenzyl)-1-((R)-1-hydroxymethyl-2-methylpropyl)-4-oxo-4H-quinolizine-3-carboxylic acid], the pIC50 is > 8.00.

With `CC(C)c1cc(C(=O)O)c(=O)n2cc(Cc3cccc(Cl)c3F)ccc12` [Example 13, 7-(3-chloro-2-fluorobenzyl)-1-isopropyl-4-oxo-4H-quinolizine-3-carboxylic acid], the pIC50 was 7.00 to 8.00.

For `N#Cc1cc(C(=O)O)c(=O)n2cc(Cc3cccc(Cl)c3F)ccc12` [Example 33, 7-(3-chloro-2-fluorobenzyl)-1-cyano-4-oxo-4H-quinolizine-3-carboxylic acid], the negative logarithm of the IC50 (pIC50) is 7.00 to 8.00.

In the case of `COCC(=O)NCc1cc(C(=O)O)c(=O)n2cc(Cc3cccc(Cl)c3F)ccc12` [Example 40, 7-(3-chloro-2-fluorobenzyl)-1-[(2-methoxyacetylamino)methyl]-4-oxo-4H-quinolizine-3-carboxylic acid], the pIC50 is 7.00 to 8.00.

Take `O=C(NCc1cc(C(=O)O)c(=O)n2cc(Cc3cccc(Cl)c3F)ccc12)c1ccccc1` [Example 45, 1-(benzoylaminomethyl)-7-(3-chloro-2-fluorobenzyl)-4-oxo-4H-quinolizine-3-carboxylic acid]: the pIC50 is 7.00 to 8.00.

As to `O=C(O)c1cc(CCO)c2ncc(Cc3cccc(Cl)c3F)cn2c1=O` [Example 34, 3-(3-chloro-2-fluorobenzyl)-9-(2-hydroxyethyl)-6-oxo-6H-pyrido[1,2-a]pyrimidine-7-carboxylic acid], the pIC50 is 6.00 to 7.00.

Consider `COCOc1cc(C(=O)O)c(=O)n2cc(Cc3cccc(Cl)c3F)ccc12` [Example 58, 7-(3-chloro-2-fluorobenzyl)-1-methoxymethoxy-4-oxo-4H-quinolizine-3-carboxylic acid], for which the negative-log IC50 (pIC50) was 6.00 to 7.00.

For the molecule `CS(=O)(=O)Nc1cc(C(=O)O)c(=O)n2cc(Cc3cccc(Cl)c3F)ccc12` [Example 29, 7-(3-chloro-2-fluorobenzyl)-1-methylsulfonylamino-4-oxo-4H-quinolizine-3-carboxylic acid], the negative logarithm of the IC50 (pIC50) is 6.00 to 7.00.

Regarding `O=C(O)CCC(=O)NCc1cc(C(=O)O)c(=O)n2cc(Cc3cccc(Cl)c3F)ccc12` [Example 54, 1-[(3-carboxypropionylamino)methyl]-7-(3-chloro-2-fluorobenzyl)-4-oxo-4H-quinolizine-3-carboxylic acid], the pIC50 is 7.00 to 8.00.

As to `CC(C)C(CO)c1cc(C(=O)O)c(=O)n2cc(Cc3cccc(Cl)c3F)ccc12` (centres unmarked) [Example 15, 7-(3-chloro-2-fluorobenzyl)-1-(1-hydroxymethyl-2-methylpropyl)-4-oxo-4H-quinolizine-3-carboxylic acid], the pIC50 was 7.00 to 8.00.

Turning to `CC(C)(C)C(=O)NCc1cc(C(=O)O)c(=O)n2cc(Cc3cccc(Cl)c3F)ccc12` [Example 37, 7-(3-chloro-2-fluorobenzyl)-1-(2,2-dimethylpropionylamino)methyl-4-oxo-4H-quinolizine-3-carboxylic acid], the pIC50 is 7.00 to 8.00.
